Target: von Hippel-Lindau disease tumor suppressor (Homo sapiens, UniProt P40337)
Experiment: Compounds were transferred from the stock plate to the assay plate and diluted into running buffer containing no DMSO. All compounds were run as a six-concentration series with a final assay top concentration of 100 uM. Data analysis was performed in Scrubber 2 (BioLogic software, Campbell, Australia). Blanks were subtracted and data was corrected for DMSO using a standard DMSO curve.

Chain of von Hippel-Lindau disease tumor suppressor (P40337 whole entry): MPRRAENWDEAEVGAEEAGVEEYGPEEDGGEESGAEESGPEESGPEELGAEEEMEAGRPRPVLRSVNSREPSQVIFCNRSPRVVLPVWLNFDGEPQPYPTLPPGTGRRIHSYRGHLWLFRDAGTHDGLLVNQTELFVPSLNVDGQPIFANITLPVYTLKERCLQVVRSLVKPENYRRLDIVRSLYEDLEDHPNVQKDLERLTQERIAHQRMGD

- Kd: 13 µM
Compound: COc1cc([C@H](C(=O)N2C[C@H](O)C[C@H]2C(=O)NCc2ccc(-c3scnc3C)cc2)C(C)C)on1

— ChEMBL document CHEMBL5727861, “Compounds and methods for the enhanced degradation of targeted proteins” (2020)
